Assay results reported in publication PMC9127186, “Molecular Basis Underlying Hepatobiliary and Renal Excretion of Phenolic Acids of Salvia miltiorrhiza Roots (Danshen)” (Frontiers in Pharmacology, 2022).
Each block holds one molecule with its values, some of them ahead of it.

Columns and labels:
human OAT2 = target: T1, human OAT2 (Homo sapiens, UniProt Q9Y694); assay: Cellular transport assay, HEK-293 cells expressing human OAT2; conditions: positive substrate 20 μM, 10 min; human OAT2
T1 sequence (Q9Y694 1-546 isoform Q9Y694-2): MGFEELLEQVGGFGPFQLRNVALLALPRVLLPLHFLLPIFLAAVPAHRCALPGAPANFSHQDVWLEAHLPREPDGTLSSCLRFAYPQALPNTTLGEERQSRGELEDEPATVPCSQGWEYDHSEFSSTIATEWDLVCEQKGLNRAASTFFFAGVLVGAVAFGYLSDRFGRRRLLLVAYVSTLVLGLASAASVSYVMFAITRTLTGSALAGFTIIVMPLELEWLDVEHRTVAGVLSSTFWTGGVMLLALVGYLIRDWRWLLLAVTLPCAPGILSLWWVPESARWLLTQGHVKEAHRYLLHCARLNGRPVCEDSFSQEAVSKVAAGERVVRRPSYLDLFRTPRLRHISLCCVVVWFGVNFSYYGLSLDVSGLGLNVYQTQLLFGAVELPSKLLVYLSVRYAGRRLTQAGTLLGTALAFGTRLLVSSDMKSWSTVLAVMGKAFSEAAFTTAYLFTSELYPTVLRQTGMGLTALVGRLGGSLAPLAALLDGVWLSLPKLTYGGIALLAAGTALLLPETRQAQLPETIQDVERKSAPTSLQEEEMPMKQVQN
Experimental: (§1) Briefly, HEK-293 cells were grown, at 37°C and 5% CO2, in Dulbecco’s modified Eagle’s medium, which was fortified with 10% fetal bovine serum, 1% minimal essential medium nonessential amino acids, and 1% antibiotic-antimycotic solution. A day before transfection, cells were seeded onto 24-well poly-D-lysine-coated plates at a density of 2 × 10^5 cells per well. After incubation at 37°C and 5% CO2 for 24 h, the expression plasmid and the empty vector were introduced separately into the HEK293 cells with Lipofectamine 2000 transfection reagent (Invitrogen, Carlsbad, CA, United States), according to the manufacturer’s protocol to yield transporter-expressing cells and mock cells, respectively.
(§2) Transport studies were performed 48 h after the transfection. […] Differential uptake between the transfected cells and mock cells was defined as net transport ratio (TransportTC/TransportMC ratio), where TransportTC and TransportMC are the transport rates of a test Danshen compound into transfected and mock cells, respectively. […] The determination was performed under linear uptake conditions by incubation for 5 min. Table 1 summarizes the final concentrations of the test Danshen compounds for different transporters. All the incubation samples were analyzed by liquid chromatography/mass spectrometry.
(§3) GraFit software (version 5.0; Erithacus Software Ltd, Surrey, United Kingdom) was used to determine the K m and V max values by nonlinear regression analysis of initial transport rates as a function of substrate concentration.

rat Oat2 = target: T2, rat Oat2 (Rattus norvegicus, UniProt Q5RLM2); assay: Cellular transport assay, HEK-293 cells expressing rat Oat2; conditions: positive substrate 20 μM, 10 min; rat Oat2
T2 sequence (Q5RLM2 1-535): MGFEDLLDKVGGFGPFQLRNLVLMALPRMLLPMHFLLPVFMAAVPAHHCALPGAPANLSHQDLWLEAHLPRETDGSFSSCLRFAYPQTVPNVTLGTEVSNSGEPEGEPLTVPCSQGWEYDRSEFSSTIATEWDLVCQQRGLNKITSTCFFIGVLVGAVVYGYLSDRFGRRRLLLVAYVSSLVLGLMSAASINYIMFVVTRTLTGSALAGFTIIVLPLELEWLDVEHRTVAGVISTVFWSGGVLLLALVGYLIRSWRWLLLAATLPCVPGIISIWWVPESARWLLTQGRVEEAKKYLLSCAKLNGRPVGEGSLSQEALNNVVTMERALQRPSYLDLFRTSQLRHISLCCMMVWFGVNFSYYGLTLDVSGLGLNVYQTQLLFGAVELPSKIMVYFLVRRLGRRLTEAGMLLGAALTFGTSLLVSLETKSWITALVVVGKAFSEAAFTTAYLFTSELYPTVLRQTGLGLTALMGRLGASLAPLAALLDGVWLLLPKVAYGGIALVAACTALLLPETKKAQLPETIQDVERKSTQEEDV
Experimental: as §1, §2, §3

human MDR1 = human MDR1 (Homo sapiens, UniProt P08183); assay: Vesicular transport assay, inside-out membrane vesicles expressing human MDR1; conditions: positive substrate 20 μM, 10 min; human MDR1
Sequence of human MDR1 (P08183 whole entry): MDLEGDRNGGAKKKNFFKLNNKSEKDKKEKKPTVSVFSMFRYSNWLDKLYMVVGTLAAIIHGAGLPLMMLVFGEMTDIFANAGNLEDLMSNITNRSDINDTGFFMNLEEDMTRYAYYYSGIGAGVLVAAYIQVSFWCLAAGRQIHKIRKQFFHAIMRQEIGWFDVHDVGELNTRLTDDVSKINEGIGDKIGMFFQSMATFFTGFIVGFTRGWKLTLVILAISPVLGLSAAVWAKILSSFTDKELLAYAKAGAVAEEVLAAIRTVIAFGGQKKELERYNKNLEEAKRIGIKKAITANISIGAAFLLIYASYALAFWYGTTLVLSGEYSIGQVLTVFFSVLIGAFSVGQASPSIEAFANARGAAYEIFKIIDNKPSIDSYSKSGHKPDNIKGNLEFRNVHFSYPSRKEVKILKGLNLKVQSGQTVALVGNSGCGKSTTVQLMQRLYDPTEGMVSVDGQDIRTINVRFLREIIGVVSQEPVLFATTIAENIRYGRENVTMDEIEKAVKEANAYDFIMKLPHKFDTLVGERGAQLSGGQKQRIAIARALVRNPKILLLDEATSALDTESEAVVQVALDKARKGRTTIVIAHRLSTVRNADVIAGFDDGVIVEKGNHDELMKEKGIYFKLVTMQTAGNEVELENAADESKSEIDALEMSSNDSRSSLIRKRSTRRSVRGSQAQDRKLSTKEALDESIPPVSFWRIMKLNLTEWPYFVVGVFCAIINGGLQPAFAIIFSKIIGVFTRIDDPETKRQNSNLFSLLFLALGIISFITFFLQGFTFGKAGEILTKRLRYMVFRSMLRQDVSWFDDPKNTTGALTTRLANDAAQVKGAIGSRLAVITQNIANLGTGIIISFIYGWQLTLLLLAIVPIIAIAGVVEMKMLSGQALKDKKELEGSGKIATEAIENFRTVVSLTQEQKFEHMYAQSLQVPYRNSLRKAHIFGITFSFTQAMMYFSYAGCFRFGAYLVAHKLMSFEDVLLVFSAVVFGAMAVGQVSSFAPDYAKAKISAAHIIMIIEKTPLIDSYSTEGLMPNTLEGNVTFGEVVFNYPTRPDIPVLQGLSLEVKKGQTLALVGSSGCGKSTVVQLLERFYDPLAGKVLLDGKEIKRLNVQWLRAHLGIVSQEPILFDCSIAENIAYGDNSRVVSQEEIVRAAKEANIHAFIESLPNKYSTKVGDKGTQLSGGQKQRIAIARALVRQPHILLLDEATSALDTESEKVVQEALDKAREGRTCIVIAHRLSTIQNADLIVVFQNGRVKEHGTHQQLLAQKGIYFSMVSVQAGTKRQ
Experimental: (§4) Inside-out membrane vesicles (5 mg protein/mL), prepared from insect cells expressing human multidrug resistance-associated protein (MRP) 2, MRP3, MRP4, breast cancer resistance protein (BCRP), bile salt export pump (BSEP), and multidrug resistance protein (MDR) one and rat Mrp2, Mrp4, Bcrp, and Bsep, and vesicles (5 mg protein/mL; prepared from the insect cells expressing no ABC transporter; serving as negative control) were obtained from Genomembrane (Kanazawa, Japan).
(§5) The test Danshen compounds at 100 µM final concentration were separately incubated with the membrane vesicles for 10 min. Buffer C (50 mM MOPS-tris, 70 mM KCl, 7.5 mM MgCl2, pH 7.0) was used for preincubation and incubation, while buffer D (40 mM MOPS-tris, 70 mM KCl, pH 7.0) was used for vesicle washing. The transport rate (pmol/mg protein/min) of the test Danshen compound was calculated using Equation (2): Transport=(CV×VV)/T/WV (2) where C V, V V, T, and W V represent concentration of the compound in vesicular lysates supernatant (μM), volume of the lysates (μL), incubation time (10 min), and amount of vesicle protein amount per well (0.05 mg), respectively. Differential transport of the test Danshen compound between ATP-containing vesicles and AMP-containing vesicles was defined as net transport ratio (TransportATP/TransportAMP ratio). […] All the incubation samples were analyzed by liquid chromatography/mass spectrometry.

rat Oatp1b2 = target: T3, rat Oatp1b2 (Rattus norvegicus, UniProt Q9QZX8); assay: Cellular transport assay, HEK-293 cells expressing rat Oatp1b2; conditions: positive substrate 20 μM, 10 min; rat Oatp1b2
T3 sequence (Q9QZX8 1-687): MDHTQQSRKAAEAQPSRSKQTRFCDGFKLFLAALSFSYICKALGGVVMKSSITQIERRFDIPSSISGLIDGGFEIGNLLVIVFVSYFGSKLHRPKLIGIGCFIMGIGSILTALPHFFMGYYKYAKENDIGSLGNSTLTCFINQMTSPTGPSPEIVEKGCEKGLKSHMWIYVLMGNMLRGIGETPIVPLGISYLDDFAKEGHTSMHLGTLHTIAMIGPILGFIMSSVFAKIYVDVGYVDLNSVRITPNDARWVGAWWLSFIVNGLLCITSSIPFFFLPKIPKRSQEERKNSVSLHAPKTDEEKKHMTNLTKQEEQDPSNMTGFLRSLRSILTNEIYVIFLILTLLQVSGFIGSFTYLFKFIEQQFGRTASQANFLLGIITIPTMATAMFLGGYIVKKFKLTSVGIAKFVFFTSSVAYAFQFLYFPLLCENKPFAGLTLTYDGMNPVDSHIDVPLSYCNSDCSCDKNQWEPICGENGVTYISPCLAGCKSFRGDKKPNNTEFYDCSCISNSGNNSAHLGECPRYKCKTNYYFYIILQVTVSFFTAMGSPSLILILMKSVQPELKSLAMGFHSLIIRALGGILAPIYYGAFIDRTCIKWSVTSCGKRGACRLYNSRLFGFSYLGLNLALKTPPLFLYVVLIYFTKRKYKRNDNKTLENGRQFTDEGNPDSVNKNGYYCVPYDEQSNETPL
Experimental: as §1, §2, §3

OATP1B3 = target: T4, OATP1B3 (Homo sapiens, UniProt Q9NPD5); assay: Cellular transport assay, HEK-293 cells expressing human OATP1B3; conditions: positive substrate 20 μM, 10 min; human OATP1B3
T4 sequence (Q9NPD5 1-702): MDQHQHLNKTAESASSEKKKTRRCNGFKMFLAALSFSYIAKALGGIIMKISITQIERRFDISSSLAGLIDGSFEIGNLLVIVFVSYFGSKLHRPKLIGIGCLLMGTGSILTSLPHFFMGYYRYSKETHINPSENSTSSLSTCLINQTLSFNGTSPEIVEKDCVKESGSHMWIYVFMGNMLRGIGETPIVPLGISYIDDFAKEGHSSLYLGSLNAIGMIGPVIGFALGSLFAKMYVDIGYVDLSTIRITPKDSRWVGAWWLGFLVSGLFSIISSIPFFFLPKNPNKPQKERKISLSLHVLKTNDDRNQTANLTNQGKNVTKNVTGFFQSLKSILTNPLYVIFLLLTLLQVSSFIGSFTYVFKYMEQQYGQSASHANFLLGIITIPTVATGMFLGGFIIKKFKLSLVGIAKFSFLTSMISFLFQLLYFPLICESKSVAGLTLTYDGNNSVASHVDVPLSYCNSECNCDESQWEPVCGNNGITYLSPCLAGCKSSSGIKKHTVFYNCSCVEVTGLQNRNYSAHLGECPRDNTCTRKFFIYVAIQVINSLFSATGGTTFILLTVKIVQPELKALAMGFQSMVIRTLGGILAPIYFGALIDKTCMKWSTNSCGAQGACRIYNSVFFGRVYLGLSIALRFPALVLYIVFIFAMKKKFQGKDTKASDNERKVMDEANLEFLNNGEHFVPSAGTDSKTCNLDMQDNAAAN
Experimental: as §1, §2, §3

human OATP1B1 = target: T5, human OATP1B1 (Homo sapiens, UniProt Q9Y6L6); assay: Cellular transport assay, HEK-293 cells expressing human OATP1B1; conditions: positive substrate 20 μM, 10 min; human OATP1B1
T5 sequence (Q9Y6L6 1-691): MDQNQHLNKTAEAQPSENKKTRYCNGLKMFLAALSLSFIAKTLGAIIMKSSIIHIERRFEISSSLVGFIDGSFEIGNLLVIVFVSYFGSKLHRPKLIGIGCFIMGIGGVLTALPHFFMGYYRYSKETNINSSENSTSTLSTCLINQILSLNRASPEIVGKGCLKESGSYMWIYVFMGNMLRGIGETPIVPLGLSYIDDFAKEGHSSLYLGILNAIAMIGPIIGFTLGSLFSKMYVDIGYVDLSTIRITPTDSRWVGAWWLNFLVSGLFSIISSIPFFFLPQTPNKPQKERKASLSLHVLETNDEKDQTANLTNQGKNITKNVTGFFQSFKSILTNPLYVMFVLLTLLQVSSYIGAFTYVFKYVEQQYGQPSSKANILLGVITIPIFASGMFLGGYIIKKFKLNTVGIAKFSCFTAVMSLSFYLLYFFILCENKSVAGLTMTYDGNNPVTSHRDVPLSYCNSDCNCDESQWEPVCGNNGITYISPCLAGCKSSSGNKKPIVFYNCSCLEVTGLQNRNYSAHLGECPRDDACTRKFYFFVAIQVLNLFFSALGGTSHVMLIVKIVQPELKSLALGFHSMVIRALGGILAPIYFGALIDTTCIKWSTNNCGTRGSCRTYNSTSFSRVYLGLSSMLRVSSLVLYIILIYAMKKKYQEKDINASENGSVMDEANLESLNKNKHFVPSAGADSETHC
Experimental: as §1, §2, §3

human MRP3 = human MRP3 (Homo sapiens, UniProt O15438); assay: Vesicular transport assay, inside-out membrane vesicles expressing human MRP3; conditions: positive substrate 20 μM, 10 min; human MRP3
Sequence of human MRP3 (O15438 whole entry): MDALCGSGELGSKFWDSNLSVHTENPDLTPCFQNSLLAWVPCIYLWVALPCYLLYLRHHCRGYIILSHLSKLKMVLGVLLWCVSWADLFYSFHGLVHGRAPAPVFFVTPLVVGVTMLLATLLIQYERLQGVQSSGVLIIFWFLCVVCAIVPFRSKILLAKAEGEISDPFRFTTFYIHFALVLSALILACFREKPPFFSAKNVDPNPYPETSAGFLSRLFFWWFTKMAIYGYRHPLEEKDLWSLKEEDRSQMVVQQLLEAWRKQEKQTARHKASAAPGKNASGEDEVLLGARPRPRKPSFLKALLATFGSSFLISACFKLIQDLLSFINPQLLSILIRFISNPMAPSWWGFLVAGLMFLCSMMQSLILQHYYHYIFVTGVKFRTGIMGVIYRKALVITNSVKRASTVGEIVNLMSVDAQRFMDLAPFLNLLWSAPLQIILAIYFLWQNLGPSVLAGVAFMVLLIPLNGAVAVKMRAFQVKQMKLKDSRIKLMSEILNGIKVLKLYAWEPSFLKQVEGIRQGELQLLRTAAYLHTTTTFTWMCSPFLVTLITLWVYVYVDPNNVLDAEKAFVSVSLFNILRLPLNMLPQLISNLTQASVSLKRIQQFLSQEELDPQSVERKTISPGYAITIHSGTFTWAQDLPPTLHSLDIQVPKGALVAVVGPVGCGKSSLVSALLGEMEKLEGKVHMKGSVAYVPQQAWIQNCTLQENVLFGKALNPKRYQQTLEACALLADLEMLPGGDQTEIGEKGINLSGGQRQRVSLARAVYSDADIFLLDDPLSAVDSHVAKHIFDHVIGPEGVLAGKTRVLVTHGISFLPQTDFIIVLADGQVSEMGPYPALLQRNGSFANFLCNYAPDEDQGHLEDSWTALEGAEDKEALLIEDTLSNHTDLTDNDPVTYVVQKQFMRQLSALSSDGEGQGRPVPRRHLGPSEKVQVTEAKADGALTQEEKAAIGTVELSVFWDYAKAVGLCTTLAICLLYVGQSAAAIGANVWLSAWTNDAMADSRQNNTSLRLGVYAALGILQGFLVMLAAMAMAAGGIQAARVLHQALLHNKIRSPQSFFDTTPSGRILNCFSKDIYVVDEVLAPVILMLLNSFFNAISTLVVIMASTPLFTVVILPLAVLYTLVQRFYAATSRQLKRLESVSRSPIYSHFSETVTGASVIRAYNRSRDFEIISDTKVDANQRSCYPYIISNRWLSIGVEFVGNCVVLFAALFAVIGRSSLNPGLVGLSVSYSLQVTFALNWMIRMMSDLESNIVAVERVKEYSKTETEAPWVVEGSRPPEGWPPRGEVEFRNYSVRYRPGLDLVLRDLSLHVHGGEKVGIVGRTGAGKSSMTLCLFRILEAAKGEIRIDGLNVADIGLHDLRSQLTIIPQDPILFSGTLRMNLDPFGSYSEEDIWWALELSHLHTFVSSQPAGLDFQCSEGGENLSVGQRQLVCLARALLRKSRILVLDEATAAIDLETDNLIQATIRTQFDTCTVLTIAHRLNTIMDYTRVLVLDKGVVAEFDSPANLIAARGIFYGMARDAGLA
Experimental: as §4, §5

human MRP2 = human MRP2 (Homo sapiens, UniProt Q92887); assay: Vesicular transport assay, inside-out membrane vesicles expressing human MRP2; conditions: positive substrate 20 μM, 10 min; human MRP2
Experimental: as §4, §5

rat Mrp2 = rat Mrp2 (Rattus norvegicus, UniProt Q63120); assay: Vesicular transport assay, inside-out membrane vesicles expressing rat Mrp2; conditions: positive substrate 20 μM, 10 min; rat Mrp2
Sequence of rat Mrp2 (Q63120 whole entry): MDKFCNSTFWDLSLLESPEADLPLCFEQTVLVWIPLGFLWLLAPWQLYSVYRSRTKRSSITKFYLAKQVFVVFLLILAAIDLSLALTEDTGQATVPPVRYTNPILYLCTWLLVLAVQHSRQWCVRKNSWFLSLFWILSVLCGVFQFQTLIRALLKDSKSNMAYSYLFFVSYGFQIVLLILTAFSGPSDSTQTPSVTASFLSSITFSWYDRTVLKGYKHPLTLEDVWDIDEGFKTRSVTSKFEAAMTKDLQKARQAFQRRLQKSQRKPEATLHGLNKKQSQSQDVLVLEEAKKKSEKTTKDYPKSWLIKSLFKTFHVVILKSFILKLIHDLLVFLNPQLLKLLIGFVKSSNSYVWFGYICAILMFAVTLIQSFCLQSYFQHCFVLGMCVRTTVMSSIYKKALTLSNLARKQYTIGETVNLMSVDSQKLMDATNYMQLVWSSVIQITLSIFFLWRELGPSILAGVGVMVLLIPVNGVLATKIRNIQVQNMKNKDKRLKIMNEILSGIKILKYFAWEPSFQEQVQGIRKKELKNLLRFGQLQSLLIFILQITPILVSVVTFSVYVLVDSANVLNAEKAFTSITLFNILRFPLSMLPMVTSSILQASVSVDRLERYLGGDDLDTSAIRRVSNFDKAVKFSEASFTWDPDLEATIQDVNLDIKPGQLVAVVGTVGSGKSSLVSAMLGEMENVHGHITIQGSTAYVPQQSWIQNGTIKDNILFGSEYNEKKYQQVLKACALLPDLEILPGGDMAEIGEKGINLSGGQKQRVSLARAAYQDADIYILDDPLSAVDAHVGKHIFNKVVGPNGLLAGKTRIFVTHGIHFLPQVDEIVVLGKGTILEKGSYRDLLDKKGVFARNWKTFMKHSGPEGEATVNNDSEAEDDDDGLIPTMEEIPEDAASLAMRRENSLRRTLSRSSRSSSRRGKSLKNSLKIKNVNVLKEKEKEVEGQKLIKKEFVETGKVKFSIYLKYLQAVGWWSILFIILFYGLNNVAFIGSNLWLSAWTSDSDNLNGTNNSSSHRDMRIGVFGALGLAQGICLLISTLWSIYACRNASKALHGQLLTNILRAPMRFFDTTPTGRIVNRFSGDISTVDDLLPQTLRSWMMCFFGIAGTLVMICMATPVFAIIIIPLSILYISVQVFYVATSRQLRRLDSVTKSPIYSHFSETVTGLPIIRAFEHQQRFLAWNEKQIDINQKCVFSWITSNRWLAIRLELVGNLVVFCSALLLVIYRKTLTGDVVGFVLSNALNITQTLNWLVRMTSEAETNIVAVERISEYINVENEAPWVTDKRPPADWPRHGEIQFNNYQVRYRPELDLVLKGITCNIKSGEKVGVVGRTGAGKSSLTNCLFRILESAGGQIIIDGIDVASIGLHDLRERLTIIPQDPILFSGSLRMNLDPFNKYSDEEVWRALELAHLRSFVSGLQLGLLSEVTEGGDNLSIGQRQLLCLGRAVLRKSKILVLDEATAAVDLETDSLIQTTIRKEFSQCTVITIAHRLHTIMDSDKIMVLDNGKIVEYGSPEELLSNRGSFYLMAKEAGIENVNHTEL
Experimental: as §4, §5

[1] = substrate: O=C(/C=C/c1ccc(O)c(O)c1)O[C@H](Cc1ccc(O)c(O)c1)C(=O)O; assay: cells, lysate or membranes named; conditions: other: human renal apical uptake OAT4; 5 min incubation, concentrations in Table 1; 37.0 °C

Molecule: CCCCC[C@H](O)/C=C/[C@@H]1[C@@H](C/C=C\CCCC(=O)O)[C@@H](O)C[C@H]1O [PGF2α, prostaglandin F2α, reference compound]
- TransportTC/TransportMC ratio, positive substrate (human OAT2): 70.2 ± 6.6 (PGF2α)
- TransportTC/TransportMC ratio, positive substrate (rat Oat2): 24.3 ± 3.3 (PGF2α)

B1: human OAT4 (Homo sapiens) (protein)
chain: MAFSKLLEQAGGVGLFQTLQVLTFILPCLMIPSQMLLENFSAAIPGHRCWTHMLDNGSAVSTNMTPKALLTISIPPGPNQGPHQCRRFRQPQWQLLDPNATATSWSEADTEPCVDGWVYDRSVFTSTIVAKWDLVCSSQGLKPLSQSIFMSGILVGSFIWGLLSYRFGRKPMLSWCCLQLAVAGTSTIFAPTFVIYCGLRFVAAFGMAGIFLSSLTLMVEWTTTSRRAVTMTVVGCAFSAGQAALGGLAFALRDWRTLQLAASVPFFAISLISWWLPESARWLIIKGKPDQALQELRKVARINGHKEAKNLTIEVLMSSVKEEVASAKEPRSVLDLFCVPVLRWRSCAMLVVNFSLLISYYGLVFDLQSLGRDIFLLQALFGAVDFLGRATTALLLSFLGRRTIQAGSQAMAGLAILANMLVPQDLQTLRVVFAVLGKGCFGISLTCLTIYKAELFPTPVRMTADGILHTVGRLGAMMGPLILMSRQALPLLPPLLYGVISIASSLVVLFFLPETQGLPLPDTIQDLESQKSTAAQGNRQEAVTVESTSL
- Vmax [1]: 4.75e-05 µmol/min/mg
- Vmax/Km [1]: 0.15 µL/min/mg

Continued, values first:

- TransportATP/TransportAMP ratio, positive substrate (human MDR1): 5.13 ± 0.87 (GL)
- TransportTC/TransportMC ratio, positive substrate (rat Oatp1b2): 121 ± 2 (GL)
- TransportTC/TransportMC ratio, positive substrate (OATP1B3): 33.1 ± 0.5 (GL)
- TransportTC/TransportMC ratio, positive substrate (human OATP1B1): 79.5 ± 1.3 (GL)
Molecule: CC1(C)[C@@H](O[C@H]2O[C@H](C(=O)O)[C@@H](O)[C@H](O)[C@H]2O[C@@H]2O[C@H](C(=O)O)[C@@H](O)[C@H](O)[C@H]2O)CC[C@]2(C)[C@H]3C(=O)C=C4[C@@H]5C[C@@](C)(C(=O)O)CC[C@]5(C)CC[C@@]4(C)[C@]3(C)CC[C@@H]12 [GL, glycyrrhizin, reference compound]

- TransportATP/TransportAMP ratio, positive substrate (human MRP3): 6.79 ± 1.49 (E217βG)
- TransportATP/TransportAMP ratio, positive substrate (human MRP2): 7.23 ± 1.04 (E217βG)
- TransportATP/TransportAMP ratio, positive substrate (rat Mrp2): 3.54 ± 0.32 (E217βG)
Molecule: C[C@]12CC[C@@H]3c4ccc(O)cc4CC[C@H]3[C@@H]1CC[C@@H]2O[C@@H]1O[C@H](C(=O)O)[C@@H](O)[C@H](O)[C@H]1O [E217βG, estradiol-17β-D-glucuronide, reference compound]
